Like-named read-outs stand apart in the source and are kept apart here.
Columns and labels:
[1] = test system: carbapenem-resistant A. baumannii (CRAB) isolates (n = 67); assay: MIC, broth microdilution (EUCAST), carbapenem-resistant A. baumannii isolates; assay type: cell-based, Acinetobacter baumannii; conditions: for MIC: Acinetobacter baumannii
Source text: The bacterial strains used in this study comprised 208 clinical isolates from the Spanish National Acinetobacter spp. 2020 Multicenter Collection, which was previously characterized in detail by our research group, including whole-genome sequencing, phylogenetics studies, clonal dynamics, and resistance mechanisms ([2], [29]). Additionally, a collection of A. baumannii ATCC 17978 transformants coding the blaOXA-23, blaOXA-24/40, blaOXA-51, blaOXA-58, blaOXA-143, and blaOXA-201 genes, previously constructed and described by our group ([30]), was used to determine the activity of enmetazobactam against strains carrying the main CHDLs of A. baumannii.
The antimicrobial susceptibility of the 208 Acinetobacter spp. isolates was assessed using the broth microdilution method, as described in the European Committee on Antimicrobial Susceptibility Testing (EUCAST) v.15 guidelines (http://www.eucast.org/clinical_breakpoints). […] MICs for enmetazobactam alone were assessed as well. […] Subsequently, MIC testing was also conducted with a collection of A. baumannii ATCC 17978 transformants expressing clinically relevant OXA-like carbapenemase genes.
The A. baumannii ATCC 19606 strain was used as the reference strain in all susceptibility experiments, in duplicate assays. Antibiotics were purchased from Sigma-Aldrich, except enmetazobactam and durlobactam, which were obtained from Advanz Pharma and MedChemExpress, respectively.

[2] = test system: carbapenem-resistant CHDL-producing A. baumannii isolates (OXA-23, OXA-24/40, OXA-58); assay: Checkerboard synergy assay (FIC index); assay type: cell-based, Acinetobacter baumannii; conditions: Acinetobacter baumannii, alone or in presence of the partner
Procedure: Checkerboard assays were performed to assess synergistic interactions between the cefepime/enmetazobactam combination and sulbactam, as well as between enmetazobactam alone and either sulbactam or colistin. […] The assays were conducted with three multidrug-resistant A. baumannii isolates from the Spanish Multicenter Collection, each producing a different OXA-type carbapenemase: OXA-23, OXA-24/40, or OXA-58. The FIC index was calculated and interpreted as follows: FICindex ≤ 0.5, synergy; FICindex > 0.5–4, no synergy; and FICindex > 4, antagonism ([33], [34]).

[3] = target: PBP1a (Acinetobacter baumannii, UniProt A0ABX6CK30); assay: PBP-binding assay, Bocillin FL competition, membrane preparations; conditions: A. baumannii ATCC 19606, read-out: IC50 (binding affinity) PBP1a
PBP1a, sequence (A0ABX6CK30 entry or part of it): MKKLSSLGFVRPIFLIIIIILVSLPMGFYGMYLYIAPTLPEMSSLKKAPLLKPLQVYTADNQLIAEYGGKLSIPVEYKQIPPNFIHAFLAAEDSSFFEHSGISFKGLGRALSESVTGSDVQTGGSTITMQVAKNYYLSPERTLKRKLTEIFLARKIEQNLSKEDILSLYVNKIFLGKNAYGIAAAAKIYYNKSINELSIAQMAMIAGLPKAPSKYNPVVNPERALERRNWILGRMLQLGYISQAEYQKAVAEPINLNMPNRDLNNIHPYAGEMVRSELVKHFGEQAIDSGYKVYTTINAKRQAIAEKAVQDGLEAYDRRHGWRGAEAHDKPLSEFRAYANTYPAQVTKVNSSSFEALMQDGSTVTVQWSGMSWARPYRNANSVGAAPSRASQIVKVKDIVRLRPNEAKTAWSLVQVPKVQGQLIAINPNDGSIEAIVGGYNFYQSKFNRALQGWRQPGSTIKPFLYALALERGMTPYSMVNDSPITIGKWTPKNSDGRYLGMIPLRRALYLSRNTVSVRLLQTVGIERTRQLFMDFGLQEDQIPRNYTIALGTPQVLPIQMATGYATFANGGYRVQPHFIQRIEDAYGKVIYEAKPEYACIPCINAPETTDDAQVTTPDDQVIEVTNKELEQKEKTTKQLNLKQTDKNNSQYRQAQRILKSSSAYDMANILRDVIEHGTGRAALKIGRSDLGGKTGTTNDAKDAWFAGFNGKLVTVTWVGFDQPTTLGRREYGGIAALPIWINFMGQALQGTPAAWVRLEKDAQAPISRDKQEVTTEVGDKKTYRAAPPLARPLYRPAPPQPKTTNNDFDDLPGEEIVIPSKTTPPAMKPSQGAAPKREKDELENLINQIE
Procedure: (§1) The possible involvement of A. baumannii PBPs as enmetazobactam targets was evaluated. […] The PBP-binding IC50 was determined in membrane preparations from three independent experiments, following previously described protocols ([13]).
(§2) Briefly, A. baumannii cultures were grown in Mueller-Hinton broth at 37°C with shaking at 180 rpm, and 400 mL were collected in late log phase (OD₆₀₀nm= 1), washed, and resuspended in 20 mM KH₂PO₄ and 140 mM NaCl (pH 7.5). After sonication, bacterial membranes were isolated by ultracentrifugation (150,000 g, 30 min). […] The Bocillin FL signal is inversely proportional to the binding capacity of the compounds tested to PBPs ([35]). The PBPs were separated by SDS-PAGE (Bio-Rad) and visualized with Odyssey M Imager (LI-COR). The IC₅₀ values were calculated using Empiria Studio software (LI-COR). The binding affinity was determined by comparing the change of the fluorescence in the presence or absence of the tested sulfones.

[4] = target: PBP1b (Acinetobacter baumannii, UniProt A0ABX6CHI7); assay: as above; conditions: A. baumannii ATCC 19606, read-out: IC50 (binding affinity) PBP1b (converted)
Procedure: as §1, §2

[5] = target: T1, PBP2 (Acinetobacter baumannii, UniProt D0C8Z9); assay: as above; conditions: membrane preparations, A. baumannii ATCC 19606, read-out: IC50 (binding affinity) PBP2 (converted)
T1 construct: endogenous in cells; host or cells: A. baumannii ATCC 19606 membrane fraction
T1 sequence (D0C8Z9 whole entry): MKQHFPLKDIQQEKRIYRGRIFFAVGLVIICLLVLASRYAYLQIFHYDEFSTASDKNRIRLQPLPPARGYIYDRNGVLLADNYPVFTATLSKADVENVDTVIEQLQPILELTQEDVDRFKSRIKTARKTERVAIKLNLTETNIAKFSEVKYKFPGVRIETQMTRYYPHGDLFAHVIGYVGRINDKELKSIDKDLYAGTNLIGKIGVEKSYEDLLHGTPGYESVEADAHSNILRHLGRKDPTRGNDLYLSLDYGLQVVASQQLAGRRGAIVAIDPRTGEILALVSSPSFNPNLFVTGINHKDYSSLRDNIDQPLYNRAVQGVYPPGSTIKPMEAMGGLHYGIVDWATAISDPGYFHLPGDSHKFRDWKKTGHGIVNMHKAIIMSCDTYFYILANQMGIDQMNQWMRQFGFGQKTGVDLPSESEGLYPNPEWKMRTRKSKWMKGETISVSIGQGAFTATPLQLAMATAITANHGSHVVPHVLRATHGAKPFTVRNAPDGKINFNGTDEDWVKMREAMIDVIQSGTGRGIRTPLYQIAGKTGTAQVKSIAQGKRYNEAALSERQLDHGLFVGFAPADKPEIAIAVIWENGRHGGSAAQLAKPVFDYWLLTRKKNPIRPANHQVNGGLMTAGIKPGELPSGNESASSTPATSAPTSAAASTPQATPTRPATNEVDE
Procedure: as §1, §2

[6] = target: PBP3 (Acinetobacter baumannii, UniProt A0ABX6CK25); assay: as above
PBP3, sequence (A0ABX6CK25 entry or part of it): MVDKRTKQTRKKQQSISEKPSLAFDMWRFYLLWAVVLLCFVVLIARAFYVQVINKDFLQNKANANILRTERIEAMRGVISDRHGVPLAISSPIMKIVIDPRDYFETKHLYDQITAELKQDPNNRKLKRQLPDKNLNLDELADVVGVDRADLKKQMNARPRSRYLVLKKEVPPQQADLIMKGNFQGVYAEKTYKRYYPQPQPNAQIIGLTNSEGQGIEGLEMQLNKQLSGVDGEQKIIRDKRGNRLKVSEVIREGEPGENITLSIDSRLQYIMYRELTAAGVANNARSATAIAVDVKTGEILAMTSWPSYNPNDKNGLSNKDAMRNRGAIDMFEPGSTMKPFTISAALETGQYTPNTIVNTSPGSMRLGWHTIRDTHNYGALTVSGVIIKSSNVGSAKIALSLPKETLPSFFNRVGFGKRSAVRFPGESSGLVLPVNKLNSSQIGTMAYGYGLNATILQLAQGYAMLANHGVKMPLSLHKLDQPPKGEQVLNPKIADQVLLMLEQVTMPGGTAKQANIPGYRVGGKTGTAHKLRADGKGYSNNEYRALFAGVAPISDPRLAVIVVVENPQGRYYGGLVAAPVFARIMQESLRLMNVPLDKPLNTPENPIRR
Procedure: as §1, §2

[7] = CHDLs-producing A. baumannii isolates (n = 67), durlobactam series, DUR fixed 4 mg/L in combinations

Compound: C[n+]1ccn(C[C@@]2(C)[C@H](C(=O)[O-])N3C(=O)C[C@H]3S2(=O)=O)n1 [enmetazobactam]
- MIC ([1]; isolate Ab191, ST 2, ADC-30, OXA-66, OXA-23, ETZ fixed 8 mg/L in combinations): 64 µg/mL
- MIC ([1]; isolate Ab192, ST 2, ADC-30, OXA-66, OXA-23, DUR fixed at 4 mg/L in combinations): 32 µg/mL
- MIC ([1]; isolate Ab192, ST 2, ADC-30, OXA-66, OXA-23, ETZ fixed 8 mg/L in combinations): 64 µg/mL
- MIC ([1]; isolate Ab194, ST 2, ADC-30, OXA-66, OXA-23, DUR fixed at 4 mg/L in combinations): 64 µg/mL
- MIC ([1]; isolate Ab194, ST 2, ADC-30, OXA-66, OXA-23, ETZ fixed 8 mg/L in combinations): 64 µg/mL
- MIC ([1]; isolate Ab199, ST 2, ADC-30, OXA-66, OXA-23, DUR fixed at 4 mg/L in combinations): 32 µg/mL
- MIC ([1]; isolate Ab199, ST 2, ADC-30, OXA-66, OXA-23, ETZ fixed 8 mg/L in combinations): 32 µg/mL
- MIC ([1]; isolate Ab201, ST 2, ADC-30, OXA-66, OXA-23, DUR fixed at 4 mg/L in combinations): 64 µg/mL
- MIC ([1]; isolate Ab201, ST 2, ADC-30, OXA-66, OXA-23, ETZ fixed 8 mg/L in combinations): 64 µg/mL
- MIC ([1]; isolate Ab204, ST 2, ADC-30, OXA-66, OXA-23, DUR fixed at 4 mg/L in combinations): 32 µg/mL
- MIC ([1]; isolate Ab204, ST 2, ADC-30, OXA-66, OXA-23, ETZ fixed 8 mg/L in combinations): 32 µg/mL
- MIC50 [1, 7]: 64 µg/mL
- MIC90 [1, 7]: 64 µg/mL
- MIC distribution 0.12 ([1]; cumulative % of CHDLs-producing A. baumannii isolates (n = 67) at MIC 0.12 mg/L, DUR fixed 4 mg/L in combinations): 0.0%
- MIC distribution 0.25 ([1]; cumulative % of CHDLs-producing A. baumannii isolates (n = 67) at MIC 0.25 mg/L, DUR fixed 4 mg/L in combinations): 0.0%
- MIC distribution 0.5 ([1]; cumulative % of CHDLs-producing A. baumannii isolates (n = 67) at MIC 0.5 mg/L, DUR fixed 4 mg/L in combinations): 0.0%
- MIC distribution 1 ([1]; cumulative % of CHDLs-producing A. baumannii isolates (n = 67) at MIC 1 mg/L, DUR fixed 4 mg/L in combinations): 0.0%
- MIC distribution 2 ([1]; cumulative % of CHDLs-producing A. baumannii isolates (n = 67) at MIC 2 mg/L, DUR fixed 4 mg/L in combinations): 0.0%
- MIC distribution 4 ([1]; cumulative % of CHDLs-producing A. baumannii isolates (n = 67) at MIC 4 mg/L, DUR fixed 4 mg/L in combinations): 10.4%
- MIC distribution 8 ([1]; cumulative % of CHDLs-producing A. baumannii isolates (n = 67) at MIC 8 mg/L, DUR fixed 4 mg/L in combinations): 22.4%
- MIC distribution 16 ([1]; cumulative % of CHDLs-producing A. baumannii isolates (n = 67) at MIC 16 mg/L, DUR fixed 4 mg/L in combinations): 25.4%
- MIC distribution 32 ([1]; cumulative % of CHDLs-producing A. baumannii isolates (n = 67) at MIC 32 mg/L, DUR fixed 4 mg/L in combinations): 46.3%
- MIC distribution ≤0.06 ([1]; cumulative % of CHDLs-producing A. baumannii isolates (n = 67) at MIC ≤0.06 mg/L, DUR fixed 4 mg/L in combinations): 0.0%
- MIC distribution ≥64 ([1]; cumulative % of CHDLs-producing A. baumannii isolates (n = 67) at MIC ≥64 mg/L, DUR fixed 4 mg/L in combinations): 100%
- MIC distribution 0.12 ([1]; cumulative share of CRAB isolates (n = 67) at MIC 0.12 mg/L, ETZ fixed 8 mg/L in combinations): 0
- MIC distribution 0.25 ([1]; cumulative share of CRAB isolates (n = 67) at MIC 0.25 mg/L, ETZ fixed 8 mg/L in combinations): 0
- MIC distribution 0.5 ([1]; cumulative share of CRAB isolates (n = 67) at MIC 0.5 mg/L, ETZ fixed 8 mg/L in combinations): 0
- MIC distribution 1 ([1]; cumulative share of CRAB isolates (n = 67) at MIC 1 mg/L, ETZ fixed 8 mg/L in combinations): 0
- MIC distribution 2 ([1]; cumulative share of CRAB isolates (n = 67) at MIC 2 mg/L, ETZ fixed 8 mg/L in combinations): 0
- MIC distribution 4 ([1]; cumulative share of CRAB isolates (n = 67) at MIC 4 mg/L, ETZ fixed 8 mg/L in combinations): 10.4
- MIC distribution 8 ([1]; cumulative share of CRAB isolates (n = 67) at MIC 8 mg/L, ETZ fixed 8 mg/L in combinations): 19.4
- MIC distribution 16 ([1]; cumulative share of CRAB isolates (n = 67) at MIC 16 mg/L, ETZ fixed 8 mg/L in combinations): 25.4
- MIC distribution 32 ([1]; cumulative share of CRAB isolates (n = 67) at MIC 32 mg/L, ETZ fixed 8 mg/L in combinations): 41.8
- MIC distribution 64 ([1]; cumulative share of CRAB isolates (n = 67) at MIC 64 mg/L, ETZ fixed 8 mg/L in combinations): 100
- MIC distribution ≤0.06 ([1]; cumulative share of CRAB isolates (n = 67) at MIC ≤0.06 mg/L, ETZ fixed 8 mg/L in combinations): 0
- MIC ([2]; checkerboard colistin x enmetazobactam, isolate Ab4 (OXA-23)): 64 µg/mL
- MIC ([2]; checkerboard colistin x enmetazobactam, isolate Ab138 (OXA-58)): 32 µg/mL
- MIC ([2]; checkerboard colistin x enmetazobactam, isolate Ab180 (OXA-24/40)): 16 µg/mL
- MIC ([2]; checkerboard sulbactam x enmetazobactam, isolate Ab4 (OXA-23)): 128 µg/mL
- MIC ([2]; checkerboard sulbactam x enmetazobactam, isolate Ab138 (OXA-58)): 32 µg/mL
- MIC ([2]; checkerboard sulbactam x enmetazobactam, isolate Ab180 (OXA-24/40)): 16 µg/mL
- IC50 [3]: > 204 µM
- IC50 [4]: > 204 µM
- IC50 [5]: 11.5 µM
- IC50 ([6]; A. baumannii ATCC 19606, listed as Enmetazobactam, read-out: IC50 (binding affinity) PBP3 (converted)): 13.4 µM
- IC50 ([6]; A. baumannii ATCC 19606, read-out: IC50 (binding affinity) PBP3 (converted)): 13.5 µM
